According to patent US11590242B2, “Antibody-mediated autocatalytic, targeted delivery of nanocarriers to tumors” (Yale University, priority 2016, dated 2023):

Legend:
[1] = Blood concentrations of DOX-NPs with and without 3E10^EN as a function of time; assay type: in vivo, BALB/c mice; conditions: 1 mg DOX-NPs i.v., coumarin 6 co-loaded, 5 min-48 h
Description: Blood concentrations of DOX-NPs with and without conjugation of 3E10^EN recorded as a function of time. To enable detection of NPs, NPs were co-loaded with 1% coumarin 6. Six BALB/c mice were randomly assigned to two groups, which received intravenous administration of 1 mg DOX-NPs with and without conjugation of 3E10^EN, respectively. At 5 min, 15 min, 30 min, 1 h, 2 h, 4 h, 6 h, 24 h, 36 h and 48 h post injection, 20 uL blood sample from each mouse was collected into a 1.5 mL Eppendorf tube and lyophilized. Then, 100 uL DMSO and 1 mL acetonitrile were added to each tube. After sonication in a water bath sonicator for 15 min, samples were subjected to centrifugation at 4000 rpm for 20 min to remove cellular fragments and blood albumin. Then, 0.8 ml supernatant from each sample was collected and added to an eppendorf tube. The acetonitrile was evaporated and the dye in the DMSO was quantified at Ex/Em 444/505 nm using a plate reader (BioTek ELx800).

Cal12T lung cancer cells = experiment: Delivery of nanoparticles into living cells (fluorescence microscopy, anti-myc immunostaining); assay type: cell-based; conditions: fixed cells
[2] = system: 4T1 murine breast cancer cells; experiment: Cytotoxicity evaluation, MTT assay; assay type: cell-based, mouse; conditions: three days treatment, listed as Free DOX
Description: All chemicals were purchased from Sigma-Aldrich unless otherwise noted. The mouse mammary tumor cell line 4T1 was obtained from American Type Culture Collection (ATCC) and cultured in DMEM medium (Invitrogen) supplemented with 10% fetal bovine serum (Invitrogen), 100 units/ml penicillin and 100 ug/ml streptomycin (Invitrogen), in a 37° C. incubator containing 5% CO2.
4T1 cells were plated in a 96-well cell culture plate at a concentration of 2×10^3 per well and incubated with concentrations of nanoparticles ranging from 1.25 to 500 ug/mL. The same amounts of free DOX were added to parallel wells as controls. Three days after treatment, the effect of treatments on cell proliferation was determined using the standard MTT assay.

4T1 tumors = experiment: Antitumor evaluation in mouse tumor xenografts; assay type: in vivo, mice; conditions: end of study, vs PBS control, i.v. three times a week
Description: Mice bearing 4T1 tumors were established as described above. […] Treatment was performed 3 times per week. Nanoparticles were administered at 1 mg, equal to 80 ug DOX per mouse. Tumor sizes were measured three times a week. Mice were euthanized when tumor volume reached 1000 mm^3, at which point the tumors were excised and fixed in formalin for immunohistochemistry. Serial sections were obtained and stained with hematoxylin and eosin (H&E) and Terminal Deoxynucleotidyl Transferase (TUNEL) for analysis of therapeutic effect. The growth curve was plotted using the mean of the tumor volumes for each treatment group, at each timepoint.

| Compound | Circulation life of NPs [1] | Subcellular localization of di-scFv (Cal12T lung cancer cells) | Effect on viability of 4T1 cells [2] | Reduction of tumor volume (4T1 tumors) |
| --- | --- | --- | --- | --- |
| 3E10^EN: enhanced di-single chain variable fragment of anti-DNA antibody 3E10 with D31N mutation, SEQ ID NO:12 | did not alter the circulation life of NPs | penetrated into cell nuclei | – | – |
| COc1cccc2c1C(=O)c1c(O)c3c(c(O)c1C2=O)C[C@@](O)(C(=O)CO)C[C@@H]3O[C@H]1C[C@H](N)[C@H](O)[C@H](C)O1 [DOX, doxorubicin] | – | – | comparable inhibition of cells | 26% |
